For experiment [1], the target named is T1, KARRIKIN INSENSITIVE2 (KAI2) (Arabidopsis thaliana, UniProt Q9SZU7).
T1 construct: full-length, recombinant from E. coli, His tag removed
T1 sequence (Q9SZU7 1-270): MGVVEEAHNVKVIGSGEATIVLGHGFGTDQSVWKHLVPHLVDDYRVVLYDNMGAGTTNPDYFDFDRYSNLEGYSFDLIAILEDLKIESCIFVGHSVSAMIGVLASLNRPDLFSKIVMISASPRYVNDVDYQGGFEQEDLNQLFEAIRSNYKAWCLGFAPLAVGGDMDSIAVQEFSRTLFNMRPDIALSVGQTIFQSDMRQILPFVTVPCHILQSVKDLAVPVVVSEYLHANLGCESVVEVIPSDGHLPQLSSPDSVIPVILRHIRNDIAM
Kind of experiment: ITC ([…] °C); supported by CPM thermal shift. The experiment is classed as binding.

Experiment [2] addresses T2, KAI2^ply2 (KAI2^A219V) (Arabidopsis thaliana, UniProt Q9SZU7, A219V).
T2 construct: full-length, recombinant from E. coli, His tag removed
Kind of experiment: ITC ([…] °C); strongly impaired binding, only marginal change in CPM assay.

From PMC6022639, “A missense allele of KARRIKIN-INSENSITIVE2 impairs ligand-binding and downstream signaling in Arabidopsis thaliana” (Journal of Experimental Botany, 2018) come the findings set out here.

A word on the Kd: it is the equilibrium constant for the complex coming apart.

T2 sequence (Q9SZU7 whole entry A219V): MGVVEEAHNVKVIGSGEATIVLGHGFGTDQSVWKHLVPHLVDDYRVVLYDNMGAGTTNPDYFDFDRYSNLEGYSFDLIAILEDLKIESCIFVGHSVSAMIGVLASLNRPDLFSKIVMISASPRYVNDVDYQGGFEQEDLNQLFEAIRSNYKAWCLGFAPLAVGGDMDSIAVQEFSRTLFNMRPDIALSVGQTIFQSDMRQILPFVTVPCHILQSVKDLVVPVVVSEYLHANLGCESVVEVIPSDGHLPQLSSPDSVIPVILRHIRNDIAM

For the compound `Cc1c2ccocc-2oc1=O` [KAR1, 3-methyl-2H-furo[2,3-c]pyran-2-one], the results for the Kd in experiment [1] and in experiment [2] were 147 µM and 2860 µM, respectively.
